Measured values: patent US20220281821A1, “INDAZOLE COMPOUNDS AND THEIR PHARMACEUTICAL COMPOSITIONS” (Jinan University, priority 2019, published 2022)
Where two headings read alike, the source gives them in different places.

Assays:
TRKA = molecular target: T1, TRKA (Homo sapiens, UniProt P04629); assay: Z′-LYTE kinase activity assay, TRKA; format: biochemical; conditions: ATP 400 uM
T1 construct: purchased life technologies PV3144
Summary of the method: (§1)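 IC50 values were fitted to inhibition calculated from the emission-ratio-based phosphorylation ratio relative to negative control, across a compound concentration gradient.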

TRKB = molecular target: T2, TRKB (Homo sapiens, UniProt Q16620); assay: Z′-LYTE kinase activity assay, TRKB; format: biochemical; conditions: ATP 25 uM
T2 construct: purchased life technologies PV3616
Summary of the method: as §1

TRKC = molecular target: T3, TRKC (Homo sapiens, UniProt Q16288); assay: Z′-LYTE kinase activity assay, TRKC; format: biochemical; conditions: ATP 50 uM
T3 construct: purchased life technologies PV3617
Summary of the method: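 Recombinant TRK kinase tested in a Z′-LYTE FRET assay with 2 μM Tyr 01 peptide substrate in 50 mM HEPES pH 7.5, 10 mM MgCl2, 1 mM EGTA, 0.01% BRIJ-35. IC50 obtained by curve fitting.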

BaF3-CD74-NTRK1 = molecular target: T4, BaF3-CD74-NTRK1 (Homo sapiens, UniProt P04629); assay: Cell proliferation inhibition (CCK-8), BaF3-CD74-NTRK1 stable strain; format: cell-based, mouse; conditions: BaF3-CD74-NTRK1, 72 hours
T4 construct: fused on or other part: P04233 (HLA class II histocompatibility antigen gamma chain)
Summary of the method: (§2)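 Ba/F3 cells stably electroporated with ETV6-NTRK3, CD74-NTRK1 or ETV6-NTRK2, selected with G418 and grown without IL3, then cloned by limiting dilution.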

BaF3-ETV6-NTRK2 = molecular target: T5, BaF3-ETV6-NTRK2 (Homo sapiens, UniProt Q16620); assay: Cell proliferation inhibition (CCK-8), BaF3-ETV6-NTRK2 stable strain; format: cell-based, mouse; conditions: BaF3-ETV6-NTRK2, 72 hours
T5 construct: fused on or other part: P41212 (Transcription factor ETV6)
Summary of the method: as §2

BaF3-ETV6-NTRK3 = molecular target: T6, BaF3-ETV6-NTRK3 (Homo sapiens, UniProt Q16288); assay: Cell proliferation inhibition (CCK-8), BaF3-ETV6-NTRK3 stable strain; format: cell-based, mouse; conditions: BaF3-ETV6-NTRK3, 72 hours
T6 construct: fused on or other part: P41212 (Transcription factor ETV6)
Summary of the method: as §2

[1] = Rat hepatocyte stability experiment; format: in vitro ADME; conditions: for Residual percentage (%) 0 min / Residual percentage (%) 5 min / Residual percentage (%) 15 min / Residual percentage (%) 30 min / Residual percentage (%) 60 min / Residual percentage (%) 120 min: average value; for half-life at 1 μM: rat, rat hepatocytes (suspension)
Description: In William medium E, dilute the 37° C. rat hepatocyte suspension to an appropriate density (viable cell density=2×10^6 cells/mL). In addition, a 2× quantification solution (the concentration of the test compound was 2 μM) was additionally prepared in William's medium E. The hepatocyte solution and 2× quantification solution were preheated in a water bath of 37° C. 40 µL of the preheated hepatocyte solution (2×10^6 cells/mL) was added into the designated wells for 5, 15, 30, 60, and 120 min, and add 40 µL of the preheated 2× quantification solution and start timing. An assay plate was placed in a 37° C., 5% CO2 incubator with shaking at 110 rpm. At 5, 15, 30, 60, and 120 minutes, 240 μL of ACN containing IS was added to each well. The plate was then sealed and stored in a −35° C. freezer. After collecting at all time points, the plate was shaken for 2 minutes and then centrifuging was performed for 15 minutes at 6000 rmp. 100 μL of supernatant from each well was transferred to a 96-well sample plate containing 100 μL of water for LC/MS analysis, determination of compound concentrations, calculation of rate constants and half-lives.

[2] = Pharmacokinetic evaluation in SD rats; format: in vivo
Description: Pharmacokinetics and oral bioavailability were tested in SD rats. According to the solubility of the drug, a single dose was administered orally, intravenously or by intraperitoneal injection. Animal blood samples were collected at different time points (0, 0.5, 1, 2, 4, 6, 8, and 24 hours), anticoagulated with heparin, and centrifuged to take the supernatant. Blood samples were analyzed by HPLC-MS. DAS2.1 was used for data analysis to detect half-life (T1/2), maximum blood concentration (Cmax), time to peak (Tmax), area under the drug-time curve (AUC), and bioavailability (BA) and other pharmacokinetic data.

TRKs (TRK1, TRK2, TRK3) = assay: Kinase activity on TRKs, summary statements; format: biochemical; conditions: summary statement
From the text: Kinase activity assay: Z′-LYTE™ technology (detection by fluorescence, enzyme-conjugated format, based on the difference in sensitivity of phosphorylated and non-phosphorylated peptides to proteolytic cleavage) was applied, and using the principle of fluorescence resonance energy transfer (FRET), a Z′-LYTE™ FRET peptide substrate (Z′-LYTE™ Tyrosine 1 Peptide Substrate, Invitrogen, PV3190), and a secondary reaction were used to detect the inhibitory activity of the compounds on TRKs (TRK1, TRK2, TRK3) (life technologies, PV3144, PV3616, PV3617).
Enzymatic reaction: In a 384-well plate, 5 μL of an enzyme-substrate system (50 mM HEPES pH 7.5, 0.01% BRIJ-35, 10 mM MgCl2, 1 mM EGTA, 2 μM Tyr 01 Peptide Substrate) was added and 5 nL of compound (concentration gradient) was transferred thereto by using the echo520 ultramicro liquid pipetting system. After shaking for 10-20 min at room temperature, 200 nL, 12.5 nL and 25 nL of ATP (final concentrations are 400 uM, 25 uM and 50 uM, respectively) were transferred by using the echo520 ultramicro liquid pipetting system. After shaking and mixing, centrifuging was performed. A reaction was carried out at 30° C. in the dark for 1.5 hours.
Assay reaction: 2.54 of Development Solution (1:128 dilution) was added in each well, and incubated at 37° C. in the dark for 1 hour, and then 5 μL of Stop Reagent was added.
Plate reading: fluorescence signals were detected using a Perkin Elmer EnVision Multimode Plate Reader (excitation at 400 nm, and emission at 460 nm, and 535 nm).
Calculation: the inhibition rate of each well was calculated by the fully active well and control signal wells. The data were analyzed as follows:
Phosphorylation ratio=1−{(emission ratio×F100%−C100%)/[C0%−C100%+emission ratio×(F100%−F0%)]}×100;
Inhibition rate=100×(1−compound phosphorylation ratio/negative control phosphorylation ratio).
IC50 values were calculated by using GraphPad Prism 5.0 software.

Ba/F3-TRK stable strains = assay: Cell proliferation of Ba/F3-TRK stable strains, summary statements; format: cell-based, mouse; conditions: summary statement
Description: The brief steps of stable strain construction are as follows: construct a pCDNA3.1(+) plasmid vector carrying genes such as CD74-NTRK1, ETV6-NTRK2 and ETV6-NTRK3; the plasmid was electroporated into Ba/F3 cells using the Amaxa® Cell Line Nucleofector® Kit V; 48 hours after electroporated, G418 with a final concentration of 1000 μg/ml was added for screening for two weeks, and then IL3 was removed, and continued screening to obtain polyclonal stable strains; then single clones were selected by a limiting dilution method. The stable strains were then identified using positive drugs, WB and gene sequencing; and the monoclonal clones that were identified as completely correct may be used for the study of cell proliferation inhibitory activity of inhibitors.
Cell proliferation inhibition activity study: the cells in the logarithmic growth phase were seeded into 96-well plates at 8000-12000 cells/well, and inhibitors at different concentrations (0-10 μM) were added the next day, and incubation was continued for 72 hours; then 10 μL of CCK-8 reagent was added to each well, and the incubation was continued for 1-3 hours; and then use a super microplate reader to measure their absorbance values at 450 nm and 650 nm. The half-inhibition concentration (IC50) was calculated using GraphPad Prism 8.0.0.

T4 sequence (P04629 510-796 limits assumed): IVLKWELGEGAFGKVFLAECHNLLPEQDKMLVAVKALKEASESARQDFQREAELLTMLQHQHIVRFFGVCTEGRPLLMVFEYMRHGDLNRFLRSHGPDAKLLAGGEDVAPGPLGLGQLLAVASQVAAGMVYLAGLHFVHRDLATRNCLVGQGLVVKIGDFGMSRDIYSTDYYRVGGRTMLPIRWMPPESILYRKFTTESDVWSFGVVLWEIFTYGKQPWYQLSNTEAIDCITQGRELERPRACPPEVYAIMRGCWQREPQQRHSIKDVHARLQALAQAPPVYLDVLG
T6 sequence (Q16288 whole entry, the tested form may be a part): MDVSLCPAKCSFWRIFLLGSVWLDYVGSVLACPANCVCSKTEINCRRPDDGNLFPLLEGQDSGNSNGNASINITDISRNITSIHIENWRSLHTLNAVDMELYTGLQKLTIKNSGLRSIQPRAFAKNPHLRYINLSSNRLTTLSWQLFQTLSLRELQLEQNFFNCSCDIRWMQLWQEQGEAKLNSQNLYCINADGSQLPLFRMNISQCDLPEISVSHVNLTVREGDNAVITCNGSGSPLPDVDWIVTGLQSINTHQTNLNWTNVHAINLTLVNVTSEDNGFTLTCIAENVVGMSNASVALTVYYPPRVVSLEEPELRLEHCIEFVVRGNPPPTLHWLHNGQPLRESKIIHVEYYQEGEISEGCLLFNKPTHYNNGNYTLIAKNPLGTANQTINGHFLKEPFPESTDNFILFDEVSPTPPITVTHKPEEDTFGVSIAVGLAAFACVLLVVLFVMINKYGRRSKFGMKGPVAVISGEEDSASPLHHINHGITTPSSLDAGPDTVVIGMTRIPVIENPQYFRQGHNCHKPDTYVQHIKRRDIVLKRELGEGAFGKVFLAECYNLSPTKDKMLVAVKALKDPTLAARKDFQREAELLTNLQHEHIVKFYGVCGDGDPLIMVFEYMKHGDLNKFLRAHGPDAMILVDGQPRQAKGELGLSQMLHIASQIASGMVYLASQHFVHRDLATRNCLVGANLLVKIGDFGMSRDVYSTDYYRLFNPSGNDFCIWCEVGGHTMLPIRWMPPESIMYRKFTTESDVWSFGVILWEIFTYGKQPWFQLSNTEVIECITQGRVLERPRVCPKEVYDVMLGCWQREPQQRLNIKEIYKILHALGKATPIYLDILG
T5 sequence (Q16620 538-822 limits assumed): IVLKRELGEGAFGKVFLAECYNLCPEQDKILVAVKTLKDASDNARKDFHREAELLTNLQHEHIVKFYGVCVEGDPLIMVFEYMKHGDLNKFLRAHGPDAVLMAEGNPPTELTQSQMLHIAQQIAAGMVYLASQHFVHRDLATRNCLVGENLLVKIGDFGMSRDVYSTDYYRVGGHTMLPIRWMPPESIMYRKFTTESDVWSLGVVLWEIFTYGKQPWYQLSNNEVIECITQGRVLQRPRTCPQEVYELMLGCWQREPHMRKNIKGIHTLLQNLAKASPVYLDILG
T1 sequence (P04629 440-796 limits assumed): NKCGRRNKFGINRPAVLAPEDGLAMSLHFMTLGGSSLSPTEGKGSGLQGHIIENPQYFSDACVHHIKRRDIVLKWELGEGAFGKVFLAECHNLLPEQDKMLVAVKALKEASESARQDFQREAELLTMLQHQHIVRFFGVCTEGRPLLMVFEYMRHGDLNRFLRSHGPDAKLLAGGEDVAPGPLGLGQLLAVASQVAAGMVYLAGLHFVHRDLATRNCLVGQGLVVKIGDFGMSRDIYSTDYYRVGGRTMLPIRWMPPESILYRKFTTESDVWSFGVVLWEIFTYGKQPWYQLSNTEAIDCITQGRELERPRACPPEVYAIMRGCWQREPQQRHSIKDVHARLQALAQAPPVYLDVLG
T2 sequence (Q16620 32-822): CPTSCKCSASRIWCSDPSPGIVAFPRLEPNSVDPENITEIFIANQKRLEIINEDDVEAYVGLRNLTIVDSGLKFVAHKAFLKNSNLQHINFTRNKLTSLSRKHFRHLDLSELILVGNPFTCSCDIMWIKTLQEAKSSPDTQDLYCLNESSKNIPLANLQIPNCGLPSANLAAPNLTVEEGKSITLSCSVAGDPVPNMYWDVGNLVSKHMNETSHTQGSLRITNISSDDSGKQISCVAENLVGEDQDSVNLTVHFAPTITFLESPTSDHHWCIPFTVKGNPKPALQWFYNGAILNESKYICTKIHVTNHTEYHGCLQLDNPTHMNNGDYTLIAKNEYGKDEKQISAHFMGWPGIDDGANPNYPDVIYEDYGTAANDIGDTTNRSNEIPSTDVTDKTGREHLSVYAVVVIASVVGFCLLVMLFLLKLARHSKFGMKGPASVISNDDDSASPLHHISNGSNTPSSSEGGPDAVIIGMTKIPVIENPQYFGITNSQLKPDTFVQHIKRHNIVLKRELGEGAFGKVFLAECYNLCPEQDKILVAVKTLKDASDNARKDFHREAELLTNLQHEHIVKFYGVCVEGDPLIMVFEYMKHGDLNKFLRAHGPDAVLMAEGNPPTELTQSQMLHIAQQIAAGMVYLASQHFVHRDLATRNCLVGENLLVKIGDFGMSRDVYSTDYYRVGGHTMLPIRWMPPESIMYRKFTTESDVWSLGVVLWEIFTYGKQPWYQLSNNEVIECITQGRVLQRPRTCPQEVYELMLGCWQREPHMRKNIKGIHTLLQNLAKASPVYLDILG
T3 sequence (Q16288 32-839): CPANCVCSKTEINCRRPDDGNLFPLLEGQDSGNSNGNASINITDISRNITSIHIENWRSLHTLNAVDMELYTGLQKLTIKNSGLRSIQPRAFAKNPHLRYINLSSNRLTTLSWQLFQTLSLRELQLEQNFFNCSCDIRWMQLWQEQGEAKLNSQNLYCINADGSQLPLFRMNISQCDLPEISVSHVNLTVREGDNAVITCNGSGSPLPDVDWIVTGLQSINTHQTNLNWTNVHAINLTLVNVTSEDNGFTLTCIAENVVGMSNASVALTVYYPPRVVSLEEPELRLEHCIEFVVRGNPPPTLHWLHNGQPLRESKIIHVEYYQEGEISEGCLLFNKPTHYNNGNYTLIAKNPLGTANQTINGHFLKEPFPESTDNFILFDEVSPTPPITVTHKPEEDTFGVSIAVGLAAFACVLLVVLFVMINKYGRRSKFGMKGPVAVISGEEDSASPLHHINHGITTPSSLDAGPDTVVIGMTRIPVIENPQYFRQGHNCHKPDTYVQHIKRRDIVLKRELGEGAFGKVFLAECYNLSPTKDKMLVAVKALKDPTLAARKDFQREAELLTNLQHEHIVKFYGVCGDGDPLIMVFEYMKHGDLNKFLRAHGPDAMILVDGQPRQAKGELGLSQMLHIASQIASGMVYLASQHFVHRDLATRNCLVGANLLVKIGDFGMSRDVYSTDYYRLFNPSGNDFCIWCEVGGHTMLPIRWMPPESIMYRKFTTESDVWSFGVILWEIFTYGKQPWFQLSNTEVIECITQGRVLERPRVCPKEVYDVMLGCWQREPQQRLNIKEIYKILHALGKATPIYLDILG

Row | IC50 (BaF3-CD74-NTRK1) [nM] | IC50 (BaF3-ETV6-NTRK2) [nM] | IC50 (BaF3-ETV6-NTRK3) [nM] | Residual percentage (%) 0 min ([1]; rat hepatocytes) [%] | Residual percentage (%) 5 min ([1]; rat hepatocytes) [%] | Residual percentage (%) 15 min ([1]; rat hepatocytes) [%] | Residual percentage (%) 30 min ([1]; rat hepatocytes) [%] | Residual percentage (%) 60 min ([1]; rat hepatocytes) [%] | Residual percentage (%) 120 min ([1]; rat hepatocytes) [%] | half-life at 1 μM [1] [h] | inhibitory activity against TRKs kinase (in words) (TRKs (TRK1, TRK2, TRK3)) | SMILES | inhibitory activity against cell proliferation of the Ba/F3-TRK stable strains (in words) (Ba/F3-TRK stable strains) | also measured
1 | 126 | 48.9 | 43.7 | 100.00 | 92.73 | 84.16 | 73.15 | 59.81 | 58.02 | 2.57 | strong inhibitory activity | O=S(=O)(Nc1ccc2[nH]nc(/C=C/c3ccccn3)c2c1)c1cc(F)cc(F)c1 [DYX-165, (E)-3,5-difluoro-N-(3-(2-(pyridin-2-yl)vinyl)-1H-indazol-5-yl)benzenesulfonamide] | strong inhibitory activity | IC50 (TRKA): 1.3 nM; IC50 (TRKB): 3.2 nM; IC50 (TRKC): 2.4 nM; metabolic stability (in words) ([1]; rat hepatocytes, comparison with DYX244-1 and DYX318): better metabolic stability; Half-life ([2]; Sprague-Dawley, rat, plasma, oral administration, 25 mg/kg, read-out: Half-life (converted)): 1.54 h; Area under the drug-time curve (0-t) ([2]; oral administration, 25 mg/kg): 1035.70 µM·h; Area under the drug-time curve (0-∞) ([2]; oral administration, 25 mg/kg): 1035.78 µM·h; Maximum blood concentration ([2]; oral administration, 25 mg/kg): 91.56 µM; Time to Peak ([2]; oral administration, 25 mg/kg): 4.00 h; oral absorption properties (in words) ([2]; oral, comparison with DYX244-1): better oral absorption properties
2 | – | – | – | 100.00 | 71.83 | 48.63 | 14.84 | 8.20 | 5.40 | 0.185 | strong inhibitory activity | C[C@@H](Nc1ccc2[nH]nc(/C=C/c3ccccn3)c2c1)c1cc(F)cc(F)c1 [DYX-244-1, (R,E)-N-(1-(3,5-difluorophenyl)ethyl)-3-(2-(pyridin-2-yl)vinyl)-1H-indazol-5-amine] | – | Area under the drug-time curve (0-t) ([2]; intravenous injection, 2 mg/kg): 3.68 µM·h; Area under the drug-time curve (0-∞) ([2]; intravenous injection, 2 mg/kg): 3.69 µM·h; Half-life ([2]; intravenous injection, 2 mg/kg): 1.39 h; Maximum blood concentration ([2]; intravenous injection, 2 mg/kg): 6.77 µM; Removal rate ([2]; intravenous injection, 2 mg/kg): 24 mL/min/kg; Time to Peak ([2]; intravenous injection, 2 mg/kg): 0.08 h; Bioavailability (%) ([2]; oral 10 mg/kg vs intravenous 2 mg/kg): 8.79%; Area under the drug-time curve (0-t) ([2]; oral administration, 10 mg/kg): 1.62 µM·h; Area under the drug-time curve (0-∞) ([2]; oral administration, 10 mg/kg): 1.64 µM·h; Half-life ([2]; oral administration, 10 mg/kg): 1.13 h; Maximum blood concentration ([2]; oral administration, 10 mg/kg): 0.36 µM; Time to Peak ([2]; oral administration, 10 mg/kg): 2.00 h
3 | 9.6 | 33.6 | 9.1 | 100.00 | 27.83 | 12.24 | 1.36 | 0.27 | 0.20 | 0.0452 | strong inhibitory activity | C[C@@H](Nc1cnc2[nH]nc(/C=C/c3ccccn3)c2c1)c1cc(F)cc(F)c1 [DYX-318, (R,E)-N-(1-(3,5-difluorophenyl)ethyl)-3-(2-(pyridin-2-yl)vinyl)-1H-pyrazolo[3,4-b]pyridin-5-amine] | strong inhibitory activity | –
